From publication PMC4536076, “Chemical Library Screening and Structure-Function Relationship Studies Identify Bisacodyl as a Potent and Selective Cytotoxic Agent Towards Quiescent Human Glioblastoma Tumor Stem-Like Cells” (PLoS ONE, 2015)
Counter-ions that a name gives are not always drawn. Like-named read-outs stand apart in the source and are kept apart here.

Experiments:
[1] = system: primary astrocytes (HA cells); experiment: ATP-Glo dose-response, primary astrocytes; type: cell-based, human; settings: Homo sapiens, Astrocyte; for EC50: ATP Glo readout, 24 h treatment
proliferating TG16 GSCs = experiment: ATP-Glo dose-response, proliferating TG16 GSCs; type: cell-based, human; settings: Homo sapiens; ATP Glo readout, 24 h treatment; read-out: P TG16 GSCs EC50
Method: (§1) The EC50 value was determined for each compound by fitting the data points according to the following equation: y=Smax+Smin*(x*1/EC50)^n/1+(x*1/EC50)^n where y represents the expected response, x is the chemical compound concentration, S max and S min are the maximum and minimum responses recorded, respectively and n is the Hill coefficient. Curve fitting was performed using Microsoft Excel Solver component.
(§2) Similar dose response curves were performed using GSCs isolated from GBM of two other patients (TG16 and OB1 GSCs) grown under proliferating and quiescent conditions.

quiescent TG16 GSCs = experiment: ATP-Glo dose-response, quiescent TG16 GSCs; type: cell-based, human; settings: Homo sapiens; ATP Glo readout, 24 h treatment; read-out: Q TG16 GSCs EC50
Method: as §1, §2

proliferating OB1 GSCs = experiment: ATP-Glo dose-response, proliferating OB1 GSCs; type: cell-based; settings: Homo sapiens; ATP Glo readout, 24 h treatment; read-out: P OB1 GSCs EC50
Method: as §1, §2

quiescent TG1 GSCs [2] = experiment: ATP-Glo dose-response, quiescent TG1 GSCs; type: cell-based, human
Method: as §1
(§3) Proliferating or quiescent TG1 cells were seeded in 50 μL of their respective media (30 000 and 40 000 viable cells/well, respectively) into 96-well opaque bottom plates (Greiner, Courtaboeuf, France). Compound treatment was performed by adding 50 μL of compound solutions (in the presence of 2% DMSO in culture medium). […] All compounds were tested in triplicate in each experiment. Independent experiments were performed at least twice for almost all of the compounds.

[3] = system: fetal neural stem cells (f-NSC); experiment: ATP-Glo dose-response, fetal neural stem cells; type: cell-based; settings: Homo sapiens, Neural stem cell; ATP Glo readout, 24 h treatment
quiescent OB1 GSCs = experiment: ATP-Glo dose-response, quiescent OB1 GSCs; type: cell-based, human; settings: Homo sapiens; ATP Glo readout, 24 h treatment; read-out: Q OB1 GSCs EC50
Method: as §1, §2

HEK 293 cells = experiment: ATP-Glo dose-response, HEK 293 cells; type: cell-based, human; settings: Homo sapiens, HEK293; ATP Glo readout, 24 h treatment
Method: The EC50 value was determined for each compound by fitting the data points according to the following equation: y=Smax+Smin*(x*1/EC50)^n/1+(x*1/EC50)^n where y represents the expected response, x is the chemical compound concentration, S max and S min are the maximum and minimum responses recorded, respectively and n is the Hill coefficient. Curve fitting was performed using Microsoft Excel Solver component. […]

proliferating TG1 GSCs [4] = experiment: ATP-Glo dose-response, proliferating TG1 GSCs; type: cell-based, human
Method: as §1, §3

proliferating TG1 GSCs [5] = settings: primary screen, 50 μM, 24 h
Method in brief: (§4)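 Cells seeded at 30 000 (proliferating) or 40 000 (quiescent) viable cells/well and treated with compound at 50 μM final, 1% DMSO, single test; hits retested in duplicate at 50 and 5 μM. ATP measured by luminescence, as percent of the mean signal of DMSO control wells.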

quiescent TG1 GSCs [6] = settings: primary screen, 50 μM, 24 h
Method in brief: as §4

quiescent TG1 cells = experiment: Cell viability, trypan blue staining, quiescent TG1 cells; type: cell-based, human; settings: quiescent TG1 GSCs, 10 μM, 24 hours
Method: Cell mortality was evaluated by trypan blue staining (0.1% (v/v)).

Astrocytes = system: Astrocytes; design: method as in PMID 23039130; settings: literature, ref [104]; cited from earlier work
Solubility measurements = type: physicochemical; settings: data not shown
[7] = system: human colon cancer cell line HT29; design: method as in PMID 1888153; settings: ref [58], read-out: EC50, decrease of proliferation; cited from earlier work
[8] = Homo sapiens, 24 h, ATP Glo readout, 24 h treatment, n = 3, read-out: Q TG1 GSCs EC50
[9] = Homo sapiens, 24 h, ATP Glo readout, 24 h treatment, n = 3, read-out: P TG1 GSCs EC50

Compound | EC50 [1] | EC50 (proliferating TG16 GSCs) | EC50 (quiescent TG16 GSCs) | EC50 (proliferating OB1 GSCs) | EC50 [3] | EC50 (quiescent OB1 GSCs) | EC50 (HEK 293 cells) | Activity on proliferating TG1 GSCs (hit compounds reducing ATP levels) (proliferating TG1 GSCs [5]) | Activity on quiescent TG1 GSCs (hit compounds reducing ATP levels) (quiescent TG1 GSCs [6]) | EC50 (quiescent TG1 GSCs [2]; [8]) | EC50 (proliferating TG1 GSCs [4]; [9]) | further results
CC[C@H](C)[C@H]1O[C@]2(CC[C@@H]1C)C[C@@H]1C[C@@H](C/C=C(\C)[C@@H](O[C@H]3C[C@H](OC)[C@@H](O[C@H]4C[C@H](OC)[C@@H](O)[C@H](C)O4)[C@H](C)O3)[C@@H](C)/C=C/C=C3\CO[C@@H]4[C@H](O)C(C)=C[C@@H](C(=O)O1)[C@]34O)O2 [Ivermectin] | 3 ± 1 µM | 1.5 ± 0.2 µM | 6 ± 2 µM | 3 ± 1 µM | 4 ± 1 µM | 7 ± 2 µM | 13 ± 1 µM | yes | yes | – | – | EC50 (quiescent TG1 GSCs [2]; Homo sapiens, ATP Glo readout, 24 h treatment, n = 3, read-out: Q TG1 GSCs EC50): 4 ± 1 µM; EC50 (proliferating TG1 GSCs [4]; Homo sapiens, ATP Glo readout, 24 h treatment, n = 3, read-out: P TG1 GSCs EC50): 3 ± 1 µM
CCCCCCCCNC(C)C(O)c1ccc(SC(C)C)cc1 (centres unmarked) [Suloctidil] | 11 ± 1 µM | 13.5 ± 0.1 µM | 14 ± 6 µM | 15 ± 2 µM | 5 ± 1 µM | 20 ± 4 µM | 10 ± 1 µM | yes | yes | 13 ± 1 µM | 11 ± 1 µM | –
CC(=O)Oc1ccc(C(c2ccc(OC(C)=O)cc2)c2ccccn2)cc1 [Compound 1, 4,4'-diacetoxydiphenyl-2-pyridyl-methane] | 0.6 ± 0.3 µM | > 100 µM | 1.3 ± 0.1 µM | > 100 µM | > 100 µM | 0.5 ± 0.1 µM | > 100 µM | – | yes | ~1 µM | > 100 µM | Emax ([1]; HA cells, not due to cell death, read-out: maximum effect: reduction of ATP levels): 30%; EC50 (quiescent TG1 GSCs [2]; ATP Glo readout, 24 h treatment, n = 3, listed as Bisacodyl, read-out: Q TG1 GSCs EC50): 1.07 ± 0.04 µM; cell viability (trypan blue and 7-AAD staining) (quiescent TG1 cells): resulted from cell death
C=C1C(=O)O[C@H]2[C@H]1CC/C(C)=C/CC[C@@]1(C)O[C@@H]21 [Parthenolide] | 59 ± 4 µM | 10 ± 2 µM | – | 18 ± 4 µM | 8.4 ± 0.2 µM | 35 ± 11 µM | 13 ± 5 µM | yes | yes | 48 ± 6 µM | 15 ± 2 µM | EC50 (Astrocytes): 186 ± 10 µM
c1ccc(C(c2ccccc2)c2ccccn2)cc1 [Compound 6, Diphenyl-2-pyridylmethane] | – | – | – | – | – | – | – | – | – | – | – | EC50 (quiescent TG1 GSCs [2]; Homo sapiens, 24 h, SAR study, ATP-Glo cell survival assay, 24 h, triplicate, read-out: Quiescent TG1 GSCs EC50): 84.8 ± 4.1 µM; solubility (Solubility measurements): not due to reduced solubility; EC50 (proliferating TG1 GSCs [4]; Homo sapiens, 24 h, SAR study, ATP-Glo cell survival assay, 24 h, triplicate, read-out: Proliferating TG1 GSCs EC50): > 100 µM
CC(C)(C)c1ccc(C(O)CCCN2CCC(C(O)(c3ccccc3)c3ccccc3)CC2)cc1 (centres unmarked) [Terfenadine] | 9 ± 2 µM | 9 ± 1 µM | 24 ± 6 µM | 10 ± 2 µM | 4 ± 1 µM | 22 ± 4 µM | 8 ± 1 µM | yes | yes | 17 ± 1 µM | ~10 µM | EC50 (proliferating TG1 GSCs [4]; ATP Glo readout, 24 h treatment, n = 3, read-out: P TG1 GSCs EC50): 8 ± 1 µM
C#C[C@]1(O)CC[C@H]2[C@@H]3CCC4=CCCC[C@@H]4[C@H]3CC[C@@]21C [Lynestrenol] | 20 ± 1 µM | 32 ± 2 µM | 28 ± 6 µM | 26 ± 5 µM | 23 ± 5 µM | 56 ± 10 µM | 57 ± 8 µM | yes | – | 43 ± 8 µM | 36 ± 2 µM | –
C1CCC(C(CC2CCCCN2)C2CCCCC2)CC1 (centres unmarked) [Perhexilin maleate] | 12 ± 2 µM | 11 ± 1 µM | 21 ± 4 µM | 12 ± 1 µM | 3 ± 1 µM | 22 ± 4 µM | 12 ± 1 µM | yes | yes | 14 ± 3 µM | 10 ± 1 µM | EC50 [7]: ~10 µM
CC(Cc1ccccc1)NCCC(c1ccccc1)c1ccccc1 (centres unmarked) [Prenylamine lactate] | 30 ± 2 µM | 32 ± 2 µM | 42 ± 8 µM | 30 ± 7 µM | 9 ± 2 µM | 49 ± 4 µM | 25 ± 6 µM | yes | yes | 27 ± 3 µM | 22 ± 3 µM | –
CCOC(=O)C1=C(C)NC(C)=C(C(=O)OC)C1c1cccc(Cl)c1Cl (centres unmarked) [Felodipine] | 36 ± 6 µM | 39 ± 4 µM | 33 ± 3 µM | 43 ± 5 µM | 59 ± 12 µM | 41 ± 6 µM | 55 ± 2 µM | yes | yes | 30 ± 3 µM | 38 ± 1 µM | –
Cc1c2ccncc2c(C)c2c1[nH]c1ccccc12 [Ellipticine] | 5 ± 1 µM | 13 ± 1 µM | 56 ± 10 µM | 8 ± 1 µM | 7 ± 2 µM | 30 ± 9 µM | 13 ± 2 µM | yes | yes | 19 ± 5 µM | 13 ± 1 µM | –
